# Patent US20260258333A1, “MULTI-ORGAN "BODY ON A CHIP" APPARATUS UTILIZING A COMMON MEDIA” (Wake Forest University Health Sciences, priority 2016, published 2026)
# Like-named read-outs stand apart in the source and are kept apart here.
# Experiments:
# liver organoids [1] = test: Liver on a chip: acetaminophen toxicity and N-acetyl-L-cysteine countermeasure; format: cell-based, human; conditions: for albumin and urea output into media: APAP 1 or 10 mM, NAC 20 mM with 10 mM APAP
# Description: FIG. 13. […] Viability as determined by LIVE/DEAD staining on day 14. Organoids were exposed to panel a) a 0 mM APAP control, panel b) 1 mM APAP, panel c) 10 mM APAP, or panel d) 10 mM APAP with 20 mM N-acetyl-L-cysteine. Green—Calcein AM-stained viable cells; Red—Ethidium homodimer-stained dead cells. […] Quantification of panel e) human albumin, panel f) urea, panel g) lactate dehydrogenase, and panel h) alpha-GST. […] Statistical significance: *p<0.05 between control and APAP; # p<0.05 APAP+NAC and APAP.
# [2] = marketed use in patients; cited from earlier work
# [3] = test system: liver organoids, 2D primary human hepatocytes, 2D HepG2; test: ATP activity, 3D liver organoids versus 2D hepatocyte and 2D HepG2 cultures; format: cell-based; conditions: ATP normalized to no drug baseline
# Source text: (§4) Comparison of ATP activity in response to drug screens of FDA-recalled drugs between 3D liver and cardiac organoids, 2D hepatocyte and cardiomyocyte cultures, and 2D HepG2 and C2C12 cell line cultures. Panels a-d) ATP activity of liver organoids, 2D primary human hepatocytes, and 2D hepG2 cell line cultures in response to panel a) troglitazone, panel b) mibefradil, panel c) bromfenac, and panel d) tielinic acid. Panels e-i) ATP activity of cardiac organoids, 2D iPS-derived cardiomyocytes, and 2D C2C12 cell line cultures in response to panel e) astemizole, panel f) pergoglide, panel g) terodiline, panel h) rofecoxib, and panel i) valdecoxib. Comparisons between groups were normalized to the no drug baseline ATP activity levels. Statistical significance: *p<0.05, 3D organoids versus both 2D cultures; #p<0.05, 2D hepatocytes/cardiomyocytes versus both 3D organoids and 2D cell lines; $ p<0.05, 2D cell line versus both 3D organoids and 2D hepatocytes/cardiomyocytes.
# (§5) In comparison to 3D organoid systems, we also screened these drugs using 2D primary hepatocyte and iPS cardiomyocyte cultures, and 2D hepg2 hepatoma cells and C2C12 myoblast cultures. […] In order to allow comparisons between the different cell model form factors, which employed different numbers of cells (liver organoids—1500; cardiac organoids—2500; 2D hepatocytes—20000; 2D cardiomyocytes—12500; HepG2 and C2C12 cultures—20000), ATP levels were normalized to no drug baseline levels.
# cardiac organoids [4] = test system: cardiac organoids
# Description: FIG. 14. […] Panel a) Beating output under baseline conditions, from which beating rate is determined. Panels b-e) Change in cardiac organoid beat rate resulting from exposure to panel b) isoproterenol, or panel c) quinidine. Panels d-e) Cardiac organoid response to epinephrine and propranolol.
# FIG. 19. Assessment of cardiac organoid beating kinetics in response to panel a) astemizole, panel b) pergoglide, and panel c) terodiline.
# It should be noted that most drugs that are recalled for causing cardiac toxicity are not actually recalled due to cardiac cell death, but rather for causing changes in cardiac function, such as beating kinetics. While 2D cardiomyocyte cultures can maintain beating activity, consistency and reproducibility can be difficult to maintain. […] These facts make it more difficult to compare beating kinetics between these cell model types.
# [5] = test system: cardiac organoids, 2D iPS-derived cardiomyocytes, 2D C2C12
# Source text: as §4, §5
# liver organoids [6] = test: LIVE/DEAD staining of 3D liver organoids, FDA-recalled drug screen; format: cell-based, human; conditions: increasing drug concentration (troglitazone 0-3 μM, mibefradil 0-100 μM)
# Source text: Unfortunately, many drugs have made it through preclinical studies and clinical trials, after which they existed on the market, for years in some cases, before being recalled by the Food and Drug Administration (FDA) for having toxic effects in humans. […] These include liver toxins troglitazone, mibefradil, bromfenac, and tienilic acid, as well as cardiac toxins, astemizole, pergoglide, terodiline, rofecoxib, and valdecoxib.
# [7] = test system: cardiac organoids, 2D iPS-derived cardiomyocytes, 2D C2C12; test: ATP activity, 3D cardiac organoids versus 2D iPS cardiomyocyte and 2D C2C12 cultures
# Source text: as §4, §5
# cardiac organoids [8] = conditions: preliminary results, FIG. 22
# Description: Following compound exposures, organoids were assessed for viability with LIVE/DEAD staining or ATP activity.
# [9] = test system: liver, cardiac, lung, testis, and brain organoids
# Description: Aim of Experiment: To assess dependence of multi organoid toxicity on liver organoid metabolic function.
# At this point, the liver modules were removed from half of the platforms. Capecitabine (20 μM) was administered to all platforms after which viability was assessed through live/dead staining or cardiac beating behavior after 7 days of exposure (day 14 of total study).
# [10] = test system: liver, cardiac, lung, testis, and brain organoids; remark: listed apart in the source
# Description: A microfluidic platform having a miniaturized footprint and fluid volume was prepared and it was assessed whether the same complex drug studies are possible on this platform.
# As with the full-scale platform described in Example 4, five tissue constructs were initiated containing liver, cardiac, lung, testis, and brain organoids and maintained for 7 days prior to the start of the drug study. At this point, the liver modules were removed from half of the platforms. Capecitabine (20 uM) was administered to all platforms after which viability was assessed through live/dead staining or cardiac beating behavior after 7 days of exposure (day 14 of total study).
# cardiac organoids [11] = test system: cardiac organoids; remark: listed apart in the source
# Source text: (§1) In the human body, organs interact with one another in complex ways. […] The modular nature of the fluidic system was employed to construct such a platform. Real-time visual monitoring of cardiac organoids was achieved using an onboard LED and camera system that was customized to integrate with the cardiac construct microreactor housing (FIG. 6, panel a) ^32. This system allowed real time video capture (FIG. 6, panel b). Using custom written MatLab code with a series of MatLab functions, moving pixels in each frame were determined against time, generating a binary representation of beat propagation (FIG. 6, panel c) and plots visualizing beating rates.
# (§2) Effects of epinephrine and propranolol were first tested independently with a cardiac-only system or the tandem system, before being tested jointly in both systems.
# (§3) Next, the interplay between both drugs in the cardiac-only and tandem systems was assessed. […] Beating plots for each condition are depicted in FIG. 6, panels f-i.
# [12] = test system: cardiac organoids downstream of liver construct
# Source text: as §1, §2, §3
# vascular endothelium = conditions: confluent monolayers, 100 μM histamine from 20 min, at 45 min; 50-90 RFUs before histamine
# Description: New vascular modules were prepared with either fully confluent endothelial layers or non-confluent layers. For this experiment, liver organoids were immobilized in liver-specific bioink, as described, in the bottom chamber of the modules (FIG. 3, panel f). These were imaged in parallel to the mass transport experiment by macro-confocal microscopy, showing the endothelium on the semi-porous membrane (membrane not visible) and the 3D liver organoid below (FIG. 3, panel g). Importantly, for the mass transport experiment, the bioink also contained a soluble fluorescent dye consisting of soluble 15 kDa gelatin conjugated with Alexa Fluor 594 maleimide tags in media. Upon addition of the liver organoids, bioink, and dye in the bottom chamber of the device, devices were sealed, and experiments were initiated. Modules were maintained under 25 μL/min flow with normal media coming from a media reservoir, during which aliquots from the outlet ports were collected every 5 minutes. […] Aliquots were analyzed following the experiment for fluorescent intensity.
# [13] = test system: vascular endothelium (human umbilical vein endothelial cells); conditions: 100 μM histamine, constant for 10 minutes; normal media about 0.54 kΩ
# Source text: The goal of our work was to develop a highly functional microfluidic perfusion-driven six-tissue body-on-a-chip system, containing representations of liver, heart, vasculature, lung, testes, and colon (FIG. 1, panels A-B). Importantly, these individual tissue types would be constructed in modular microfluidic hardware devices, or microreactors (FIG. 1, panel B), formed by conventional polydimethyl-siloxane (PDMS) soft lithography and molding, ^11,30,31 allowing simple “plug and play” capabilities for platform initialization. […] Because of the specific individual requirements of each type of tissue model, a toolbox of biofabrication techniques was employed to create each tissue model (FIG. 1, panels C-E). Briefly, using hanging drop methodology, spherical liver organoids were formed with primary human hepatocytes, stellate cells, and Kupffer cells, spherical cardiac organoids and testes organoids were formed using human induced pluripotent stem (iPS) cells. These spherical organoids were then bioprinted (FIG. 7) into the microreactors using a liver ECM-derived bio-ink, a fibrin and gelatin bio-ink, and a hyaluronic acid (HA) and gelatin bio-ink, employing crosslinking of the hydrogel bio-inks to immobilize the organoids as larger hydrogel-organoid constructs within the perfusion system. […]
smiles,measurement,setting,value
"CC(=O)N[C@@H](CS)C(=O)O [NAC, N-acetyl-L-cysteine]","viability, LIVE/DEAD staining on day 14",liver organoids [1]; 10 mM APAP with 20 mM N-acetyl-L-cysteine,rescued
same,albumin and urea output into media,liver organoids [1],decreases this reduction in secretion
O=C(O)COc1ccc(C(=O)c2cccs2)c(Cl)c1Cl [Tienilic Acid],Site of Primary Toxicity,[2],Liver
same,"sensitivity by ATP activity, 3D organoids versus both 2D systems",[3],did not experience significantly different responses
Nc1c(CC(=O)O)cccc1C(=O)c1ccc(Br)cc1 [Bromfenac],Site of Primary Toxicity,[2],Liver
same,"sensitivity by ATP activity, 3D organoids and 2D hepatocyte cultures in comparison to 2D HepG2 cultures",[3],slightly more resistant
CCCN1C[C@H](CSC)C[C@@H]2c3cccc4[nH]cc(c34)C[C@H]21 [Pergoglide],beating kinetics of 3D cardiac organoids,cardiac organoids [4],detrimental changes in beating kinetics
same,"sensitivity by ATP activity, 3D cardiac organoids compared to the 2D systems",[5],significantly more sensitive
same,Site of Primary Toxicity,[2],Heart
COCC(=O)O[C@]1(CCN(C)CCCc2nc3ccccc3[nH]2)CCc2cc(F)ccc2[C@@H]1C(C)C [Mibefradil],"cell death, LIVE/DEAD",liver organoids [6],increases in cell death
same,Site of Primary Toxicity,[2],Liver
same,"sensitivity by ATP activity, 3D organoids and 2D hepatocyte cultures in comparison to 2D HepG2 cultures",[3],more sensitive
"CC(=O)Nc1ccc(O)cc1 [APAP, acetaminophen]",albumin and urea output into media,liver organoids [1],negatively affected
same,LDH and alpha-GST in media,liver organoids [1]; APAP treatment,elevated levels
COc1ccc(CCN2CCC(Nc3nc4ccccc4n3Cc3ccc(F)cc3)CC2)cc1 [Astemizole],beating kinetics of 3D cardiac organoids,cardiac organoids [4],detrimental changes in beating kinetics
same,"sensitivity by ATP activity, 3D cardiac organoids compared to the 2D systems",[5],significantly more sensitive
same,Site of Primary Toxicity,[2],Heart
CS(=O)(=O)c1ccc(C2=C(c3ccccc3)C(=O)OC2)cc1 [Rofecoxib],Site of Primary Toxicity,[2],Heart
same,"sensitivity by ATP activity, 2D cardiomyocyte cultures compared to 3D organoids and 2D C2C12 cultures",[7]; only at low to medium drug concentrations,increased sensitivity
CC(CC(c1ccccc1)c1ccccc1)NC(C)(C)C (centres unmarked) [Terodiline],beating kinetics of 3D cardiac organoids,cardiac organoids [4],detrimental changes in beating kinetics
same,Site of Primary Toxicity,[2],Heart
same,"sensitivity by ATP activity, 3D cardiac organoids compared to the 2D systems",[7]; only at the highest concentration of 100 μM,slightly more sensitive
"[Cl][Pb][Cl] [lead, lead chloride]",ATP activity,cardiac organoids [8],decreases in ATP activity
"O=[N+]([O-])[O-].[Tl+] [thallium, thallium nitrate]",ATP activity,cardiac organoids [8],decreases in ATP activity
Cc1c(C)c2c(c(C)c1O)CCC(C)(COc1ccc(CC3SC(=O)NC3=O)cc1)O2 (centres unmarked) [Troglitazone],"cell death, LIVE/DEAD",liver organoids [6],increases in cell death
same,Site of Primary Toxicity,[2],Liver
Cc1onc(-c2ccccc2)c1-c1ccc(S(N)(=O)=O)cc1 [Valdecoxib],"sensitivity by ATP activity, 2D cardiomyocyte cultures compared to 3D organoids and 2D C2C12 cultures",[5],increased sensitivity
same,Site of Primary Toxicity,[2],Heart
O=C(O)CNCP(=O)(O)O [glyphosate],ATP activity,cardiac organoids [8],decreases in ATP activity
CCCCCOC(=O)Nc1nc(=O)n([C@@H]2O[C@H](C)[C@@H](O)[C@H]2O)cc1F [capecitabine],metabolism of the prodrug,[9],this metabolism does not occur
same,metabolism of the prodrug,"[9]; human, 7 days, 20 μM",metabolized into the toxic drug 5-FU
same,metabolism of the prodrug,[10],this metabolism does not occur
same,metabolism of the prodrug,"[10]; human, 7 days, 20 uM",metabolized into the toxic drug 5-FU
CC(C)NCC(O)COc1cccc2ccccc12 (centres unmarked) [propranolol],beating rate after administration of 5 μM epinephrine,cardiac organoids [4]; initial incubation with propranolol 0 to 20 μM,dose dependent decrease in beating rate
same,effect of propranolol on response to 0.5 μM epinephrine,"cardiac organoids [11]; Group 1, no liver organoids, 0.1 μM propranolol first",successfully blocked the beta-adrenergic effects
same,decrease in beating rate,"cardiac organoids [11]; propranolol only, 0.1 μM, p<0.05",~ 10%
same,change in beating rate,"[12]; propranolol only, 0.1 μM, liver construct present",no decrease in beating rate
NCCc1c[nH]cn1 [histamine],fluorescent intensity of outlet aliquots (dye transfer),vascular endothelium,~200 RFUs
same,resistance across endothelium layers (TEER),[13],approximately 0.4 kΩ
CNC[C@H](O)c1ccc(O)c(O)c1 [epinephrine],epinephrine concentration at which beat rate increase reaches a plateau,cardiac organoids [4],≥ 5 µM
same,dose dependent increase in beat rate,cardiac organoids [4]; increasing epinephrine concentration,1 to 2 fold
same,increase in beating rate,"cardiac organoids [11]; epinephrine only, 0.5 μM",~ 40%
same,increase in cardiac BPM after epinephrine,"cardiac organoids [11]; experimental controls, no propranolol prior to epinephrine",1.5 fold
same,increase in BPM after epinephrine,"[12]; Group 2, liver component present, 0.1 μM propranolol then 0.5 μM epinephrine",1.25 fold
same,response relative to control epinephrine-only response,"[12]; Group 2, liver organoids, propranolol then epinephrine",approximately 50%
same,restoration of the epinephrine-induced increase in beat rate,[12]; Group 2 conditions with 2D hepatocyte culture (1-2 million cells) in place of 3D liver organoids,failed to achieve any restoration
same,increase in beating rate,"[12]; epinephrine only, 0.5 μM, liver component present, p<0.05",~30%
